Measurements from patent US8557763B2, “Synthetic peptides that enhance tight junction permeability” (Alba Therapeutics Corporation, priority 2007, dated 2013).
Where no end group is shown, it is not given here. [ ]: non-standard residue; d: D form. AllylGly = C=CC[C@H](N)C(=O)O

What was measured:
CaCo2 monolayers [1] = test: Trans Epithelial Electric Resistance (TEER) across CaCo2 monolayers; type: cell-based; parameters: key to Reduced TEER: + indicates an enhancement of the permeability of the tight junctions were observed; − indicates no enhancement of permeability was observed; settings: for Reduced TEER: CaCo2 monolayers
CaCo2 monolayers [2] = test: Lucifer Yellow (LY) permeability assay through CaCo2 monolayers; type: cell-based; parameters: key to Enhanced LY permeability: + indicates an enhancement of the permeability of the tight junctions were observed; − indicates no enhancement of permeability was observed; settings: for Enhanced LY permeability: CaCo2 monolayers, Lucifer Yellow flux

Row | Substance | Reduced TEER (CaCo2 monolayers [1]) | Enhanced LY permeability (CaCo2 monolayers [2]) | decrease in TEER across CaCo2 monolayers (CaCo2 monolayers [1]; compared to vehicle alone) [fold] | enhancement of Lucifer Yellow permeability through CaCo2 monolayers (CaCo2 monolayers [2]; compared to vehicle alone) [fold]
1 | 55 (F[AllylGly]IGHL-NH2; N-terminus assumed; SMILES C=CC[C@H](NC(=O)[C@@H](N)Cc1ccccc1)C(=O)N[C@H](C(=O)NCC(=O)N[C@@H](Cc1c[nH]cn1)C(=O)N[C@@H](CC(C)C)C(N)=O)[C@@H](C)CC) [compound 55] | − | − |  | 
2 | 56 (F[AllylGly]IGDL-NH2; N-terminus assumed; SMILES C=CC[C@H](NC(=O)[C@@H](N)Cc1ccccc1)C(=O)N[C@H](C(=O)NCC(=O)N[C@@H](CC(=O)O)C(=O)N[C@@H](CC(C)C)C(N)=O)[C@@H](C)CC) [compound 56] | + | + |  | 
3 | 57 (F[AllylGly]IGEL-NH2; N-terminus assumed; SMILES C=CC[C@H](NC(=O)[C@@H](N)Cc1ccccc1)C(=O)N[C@H](C(=O)NCC(=O)N[C@@H](CCC(=O)O)C(=O)N[C@@H](CC(C)C)C(N)=O)[C@@H](C)CC) [compound 57] | − | − |  | 
4 | 58 (F[AllylGly]IGQL-NH2; N-terminus assumed; SMILES C=CC[C@H](NC(=O)[C@@H](N)Cc1ccccc1)C(=O)N[C@H](C(=O)NCC(=O)N[C@@H](CCC(N)=O)C(=O)N[C@@H](CC(C)C)C(N)=O)[C@@H](C)CC) [compound 58] | − | − |  | 
5 | 59 (F[AllylGly]IGGL-NH2; N-terminus assumed; SMILES C=CC[C@H](NC(=O)[C@@H](N)Cc1ccccc1)C(=O)N[C@H](C(=O)NCC(=O)NCC(=O)N[C@@H](CC(C)C)C(N)=O)[C@@H](C)CC) [compound 59] | + | + |  | 
6 | 62 (F[AllylGly]IGKL-NH2; N-terminus assumed; SMILES C=CC[C@H](NC(=O)[C@@H](N)Cc1ccccc1)C(=O)N[C@H](C(=O)NCC(=O)N[C@@H](CCCCN)C(=O)N[C@@H](CC(C)C)C(N)=O)[C@@H](C)CC) [compound 62] | + | + |  | 
7 | 71 (F[AllylGly]IGPL-NH2; N-terminus assumed; SMILES C=CC[C@H](NC(=O)[C@@H](N)Cc1ccccc1)C(=O)N[C@H](C(=O)NCC(=O)N1CCC[C@H]1C(=O)N[C@@H](CC(C)C)C(N)=O)[C@@H](C)CC) [compound 71] | − | + |  | 
8 | 72 (F[AllylGly]IGVL-NH2; N-terminus assumed; SMILES C=CC[C@H](NC(=O)[C@@H](N)Cc1ccccc1)C(=O)N[C@H](C(=O)NCC(=O)N[C@H](C(=O)N[C@@H](CC(C)C)C(N)=O)C(C)C)[C@@H](C)CC) [compound 72] | + | − |  | 
9 | 73 (F[AllylGly]IGRH-NH2; N-terminus assumed; SMILES C=CC[C@H](NC(=O)[C@@H](N)Cc1ccccc1)C(=O)N[C@H](C(=O)NCC(=O)N[C@@H](CCCNC(=N)N)C(=O)N[C@@H](Cc1c[nH]cn1)C(N)=O)[C@@H](C)CC) [compound 73] | + | + |  | 
10 | 74 (F[AllylGly]IGRD-NH2; N-terminus assumed; SMILES C=CC[C@H](NC(=O)[C@@H](N)Cc1ccccc1)C(=O)N[C@H](C(=O)NCC(=O)N[C@@H](CCCNC(=N)N)C(=O)N[C@@H](CC(=O)O)C(N)=O)[C@@H](C)CC) [compound 74] | + | + |  | 
11 | 75 (F[AllylGly]IGRR-NH2; N-terminus assumed; SMILES C=CC[C@H](NC(=O)[C@@H](N)Cc1ccccc1)C(=O)N[C@H](C(=O)NCC(=O)N[C@@H](CCCNC(=N)N)C(=O)N[C@@H](CCCNC(=N)N)C(N)=O)[C@@H](C)CC) [compound 75] | − | + |  | 
12 | 76 (F[AllylGly]IGRF-NH2; N-terminus assumed; SMILES C=CC[C@H](NC(=O)[C@@H](N)Cc1ccccc1)C(=O)N[C@H](C(=O)NCC(=O)N[C@@H](CCCNC(=N)N)C(=O)N[C@@H](Cc1ccccc1)C(N)=O)[C@@H](C)CC) [compound 76] | + | + |  | 
13 | 77 (F[AllylGly]IGRA-NH2; N-terminus assumed; SMILES C=CC[C@H](NC(=O)[C@@H](N)Cc1ccccc1)C(=O)N[C@H](C(=O)NCC(=O)N[C@@H](CCCNC(=N)N)C(=O)N[C@@H](C)C(N)=O)[C@@H](C)CC) [compound 77] | − | + |  | 
14 | 78 (F[AllylGly]IGRG-NH2; N-terminus assumed; SMILES C=CC[C@H](NC(=O)[C@@H](N)Cc1ccccc1)C(=O)N[C@H](C(=O)NCC(=O)N[C@@H](CCCNC(=N)N)C(=O)NCC(N)=O)[C@@H](C)CC) [compound 78] | − | + |  | 
15 | 79 (F[AllylGly]IGRQ-NH2; N-terminus assumed; SMILES C=CC[C@H](NC(=O)[C@@H](N)Cc1ccccc1)C(=O)N[C@H](C(=O)NCC(=O)N[C@@H](CCCNC(=N)N)C(=O)N[C@@H](CCC(N)=O)C(N)=O)[C@@H](C)CC) [compound 79] | − | − |  | 
16 | 80 (F[AllylGly]IGRE-NH2; N-terminus assumed; SMILES C=CC[C@H](NC(=O)[C@@H](N)Cc1ccccc1)C(=O)N[C@H](C(=O)NCC(=O)N[C@@H](CCCNC(=N)N)C(=O)N[C@@H](CCC(=O)O)C(N)=O)[C@@H](C)CC) [compound 80] | + | + |  | 
17 | 82 (F[AllylGly]IGRY-NH2; N-terminus assumed; SMILES C=CC[C@H](NC(=O)[C@@H](N)Cc1ccccc1)C(=O)N[C@H](C(=O)NCC(=O)N[C@@H](CCCNC(=N)N)C(=O)N[C@@H](Cc1ccc(O)cc1)C(N)=O)[C@@H](C)CC) [compound 82] | + | + |  | 
18 | 83 (F[AllylGly]IGRS-NH2; N-terminus assumed; SMILES C=CC[C@H](NC(=O)[C@@H](N)Cc1ccccc1)C(=O)N[C@H](C(=O)NCC(=O)N[C@@H](CCCNC(=N)N)C(=O)N[C@@H](CO)C(N)=O)[C@@H](C)CC) [compound 83] | − | − |  | 
19 | 84 (F[AllylGly]IGRN-NH2; N-terminus assumed; SMILES C=CC[C@H](NC(=O)[C@@H](N)Cc1ccccc1)C(=O)N[C@H](C(=O)NCC(=O)N[C@@H](CCCNC(=N)N)C(=O)N[C@@H](CC(N)=O)C(N)=O)[C@@H](C)CC) [compound 84] | + | + |  | 
20 | 85 (F[AllylGly]IGRM-NH2; N-terminus assumed; SMILES C=CC[C@H](NC(=O)[C@@H](N)Cc1ccccc1)C(=O)N[C@H](C(=O)NCC(=O)N[C@@H](CCCNC(=N)N)C(=O)N[C@@H](CCSC)C(N)=O)[C@@H](C)CC) [compound 85] | + | + |  | 
21 | 86 (F[AllylGly]IGRK-NH2; N-terminus assumed; SMILES C=CC[C@H](NC(=O)[C@@H](N)Cc1ccccc1)C(=O)N[C@H](C(=O)NCC(=O)N[C@@H](CCCNC(=N)N)C(=O)N[C@@H](CCCCN)C(N)=O)[C@@H](C)CC) [compound 86] | − | + |  | 
22 | 87 (F[AllylGly]IGRI-NH2; N-terminus assumed; SMILES C=CC[C@H](NC(=O)[C@@H](N)Cc1ccccc1)C(=O)N[C@H](C(=O)NCC(=O)N[C@@H](CCCNC(=N)N)C(=O)N[C@H](C(N)=O)[C@@H](C)CC)[C@@H](C)CC) [compound 87] | + | + |  | 
23 | 88 (F[AllylGly]IGRW-NH2; N-terminus assumed; SMILES C=CC[C@H](NC(=O)[C@@H](N)Cc1ccccc1)C(=O)N[C@H](C(=O)NCC(=O)N[C@@H](CCCNC(=N)N)C(=O)N[C@@H](Cc1c[nH]c2ccccc12)C(N)=O)[C@@H](C)CC) [compound 88] | + | + |  | 
24 | 89 (FXIGRP-NH2; not fully specified (residue 2); printed as Phe−Allylaly−Ile−Gly−Arg−Pro−NH2) [compound 89] | − | − |  | 
25 | 90 (F[AllylGly]IGRV-NH2; N-terminus assumed; SMILES C=CC[C@H](NC(=O)[C@@H](N)Cc1ccccc1)C(=O)N[C@H](C(=O)NCC(=O)N[C@@H](CCCNC(=N)N)C(=O)N[C@H](C(N)=O)C(C)C)[C@@H](C)CC) [compound 90] | + | + |  | 
26 | FCIGRL [SEQ ID NO: 1, Phe−Cys−Ile−Gly−Arg−Leu, reference compound] |  |  | 16 | 51
